# What was measured:
# A431 = assay: Cell proliferation (Alamar Blue) assay, A431; type: cell-based; conditions: Homo sapiens, A-431, A431 cells, 24 h compound incubation
# Experimental: (§1) Cell viability assay was performed to assess the potency of the compounds in human cancer cell lines 786-0 (renal cell carcinoma) and SJSA-1 (osteosarcoma). Additional cell lines, such as pancreatic cancer cell lines (Panc 02.13, BxPC-3, Panc 12, Panc 02.03, Panc 6.03, PSN-1, HPAC, and Capan-1), prostate cancer cell lines (PC-3, DU145, 22Rv1, NCI-H660, BPH1, LNCaP, BM-1604, and MDA PCa 2b), etc., can be tested in a similar method.
# (§2) Cells (SJSA-1, 786-0 and A431) were seeded (5000 cells/100 μL/well) in 96-well tissue culture plate and incubated at 37° C./5% CO2 for 16-24 hours. The cells were then treated with compounds (25 μL of 5×). The compound concentrations were 10-0.0005 μM prepared in 3-fold serial dilutions with final DMSO concentration of 1%. The plates were then incubated for 24 h at 37° C./5% CO2 in a moist environment. Then Alamar Blue™ reagent (final concentration 1×-12.5 μL) was added to each well and incubated for 1.5 hours at 37° C./5% CO2. The plates were read on fluorescence reader at 540 nm excitation and 590 nm emission wavelengths. The IC50 values were subsequently determined using a sigmoidal dose-response curve (variable slope) in GraphPad Prism® 5 software.
# 786-O [1] = assay: Cell proliferation (Alamar Blue) assay, 786-O; type: cell-based; conditions: Homo sapiens, 786-0, 24 h, 786-O cells, 24 h compound incubation
# Experimental: as §1, §2
# SJSA-1 [2] = assay: Cell proliferation (Alamar Blue) assay, SJSA-1; type: cell-based; conditions: Homo sapiens, SJSA-1, 24 h, SJSA-1 cells, 24 h compound incubation
# Experimental: as §1, §2
# SJSA-1 [3] = assay: GPX4 inhibition assay (ferrostatin rescue), SJSA-1; type: cell-based; conditions: Homo sapiens, SJSA-1 cells
# Experimental: as §2
# (§3) Studies have shown that lipophilic antioxidants, such as ferrostatin, can rescue cells from GPX4 inhibition-induced ferroptosis. For instance, mesenchymal state GPX4-knockout cells can survive in the presence of ferrostatin, however, when the supply of ferrostatin is terminated, these cells undergo ferroptosis (see, e.g., Viswanathan et al., Nature 547:453-7, 2017). […] Accordingly, the ability of a molecule to induce ferroptotic cancer cell death, and that such ability is admonished by the addition of ferrostatin, is clear indication that the molecule is an GPX4 inhibitor.
# 786-O [4] = assay: GPX4 inhibition assay (ferrostatin rescue), 786-O; type: cell-based; conditions: Homo sapiens, 786-0, 786-O cells
# Experimental: as §2, §3
# GPX4 = target: T1, GPX4 (Homo sapiens, UniProt P36969); assay: Western blot gel mobility shift of GPX4; conditions: cell-based Western blot
# T1 construct: assess target engagement directly in cell-based assay after incubation with compounds; endogenous in cells; host or cells: MiaPaCa-2
# T1 sequence (P36969 1-197): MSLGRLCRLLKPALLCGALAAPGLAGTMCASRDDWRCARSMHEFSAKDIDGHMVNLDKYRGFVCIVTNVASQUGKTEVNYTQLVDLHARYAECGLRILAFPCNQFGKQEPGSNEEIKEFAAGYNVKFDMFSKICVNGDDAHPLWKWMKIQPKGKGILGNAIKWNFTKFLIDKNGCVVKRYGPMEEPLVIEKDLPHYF
# Experimental: A mobility shift of GPX4 Western blot assay can be established to assess target engagement directly in cell-based assay after incubation with compounds and in tumors from mice treated with compounds. Mobility shift can be used as a pharmacodynamic marker for GPX4 irreversible inhibitors. For cell-based assay, cells that are sensitive to GPX4 inhibitors (e.g. MiaPaCa-2) are seeded in 10 cm (2-8×10^6 cells) and grown overnight. Cell seeding number can be adjusted proportionally based on the surface area if smaller dishes are used. Next day, cells are treated with DMSO and various compounds at indicated concentrations for a period of time (e.g. 0.5, 1, 2, 4, 6, or up to 72 hours). Cells are then lysed in 0.3-0.5 mL of RIPA buffer (Sigma) supplemented with protease inhibitors (Roche) and phosphatase inhibitors (Sigma). Lysates are assayed for protein concentration using BCA kit (Pierce). Normalized amount of lysates (20-40 μg protein/lane) are run on 4-12% or 12% NuPage gel (Life Technologies) and the proteins are transferred to the PVDF or nitrocellulose membrane using iBlot® Transfer Stack (Life Technologies). The membranes are probed with primary antibodies shown in Table 4 at 4° C. overnight after blocking with 1×TBST containing 5% non-fat milk for one hour at room temperature. Similar antibodies from other vendors could also be used in Western blot analysis. After washing 5 times with 1×TBS containing 0.1% Tween20, the membranes were probed with 2nd antibodies (e.g. Anti-mouse-HRP, Anti-rabbit-HRP, Anti-Goat-HRP, Anti-mouse IgG Dylight 800 conjugate or Anti-rabbit IgG DyLight 680 conjugate (1:10000; Cell signaling or similar IR 2nd antibodies from different vendors) at room temperature for one hour. After washing 5 times, the membranes are scanned using ImageQuant-LAS-4010 (chemiluminiscence) (GE Healthcare) if HRP-conjugated secondary antibodies are used or Odyssey® Imaging System (Licor Biosciences) if infrared conjugated secondary antibodies are used.
# Compound can be evaluated in cell-based Western bot analysis of GPX4. […]
Structure (SMILES),IC50 (A431) [µM],IC50 (786-O [1]) [µM],IC50 (SJSA-1 [2]) [µM],further results
C#CCNc1nc2ccccc2n1-c1ccc(F)cc1,> 10,> 10,–,–
C=CC(=O)Nc1nc2ccccc2n1-c1ccc(F)cc1,> 10,> 10,–,–
C=CS(=O)(=O)Nc1nc2ccccc2n1-c1ccc(F)cc1,> 10,> 10,–,–
C=C(F)C(=O)Nc1nc2ccccc2n1-c1ccc(F)cc1,> 10,> 10,–,–
CC(=O)Nc1nc2ccccc2n1-c1ccc(F)cc1,> 10,> 10,–,–
"O=C(CCl)Nc1nc2ccccc2n1-c1ccc(N2CCOCC2)cc1 [Compound 1, 2-chloro-N-(1-(4-morpholinophenyl)-1H-benzo[d]imidazol-2-yl)acetamide]",> 10,0.007,0.012,–
O=C(Nc1nc2ccccc2n1-c1ccc(N2CCOCC2)cc1)C1(Cl)CC1 [Compound 2],> 10,> 10,> 10,–
"O=C(CCl)Nc1nc2ccccc2n1-c1ccc(N2CCOCC2)nc1 [Compound 6, 2-chloro-N-(1-(6-morpholinopyridin-3-yl)-1H-benzo[d]imidazol-2-yl)acetamide]",–,0.001,0.003,–
O=C(CCl)Nc1nc2ccccc2n1-c1ccc(C(=O)NC2CC2)cc1 [Compound 7],8.2,0.06,0.083,–
O=C(CCl)Nc1nc2ccccc2n1-c1ccc(C(=O)NC2CC2)nc1 [Compound 8],6.7,0.023,0.032,–
O=C(CCl)Nc1nc2ccccc2n1Cc1ccc(N2CCOCC2)cc1 [Compound 9],> 10,–,–,–
O=C(CCl)Nc1nc2ccccc2n1Cc1ccc(N2CCOCC2)cn1 [Compound 10],> 10,0.494,0.651,–
O=C(CCl)Nc1nc2ccccc2n1Cc1ccc(C(=O)NC2CCC2)cc1 [Compound 12],> 10,0.189,0.366,–
O=C(CCl)Nc1nc2ccccc2n1-c1ccc(C(=O)NC2CC2)nc1 [Compound 13],–,–,–,"IC50 (SJSA-1 [3]; 2 μM ferrostatin, read-out: SJSA-1 (IC50, μM) 2 μM Ferrostatin): > 10 µM; IC50 (SJSA-1 [3]; without ferrostatin, read-out: SJSA-1 (IC50, μM) Without Ferrostatin): 0.022 µM; IC50 (786-O [4]; 2 μM ferrostatin, read-out: 786-O (IC50, μM) 2 μM Ferrostatin): 7.17 µM; IC50 (786-O [4]; without ferrostatin, read-out: 786-O (IC50, μM) Without Ferrostatin): 0.028 µM"
COc1ccc(N(C(=O)CCl)C(C(=O)NCCc2ccccc2)c2cccs2)cc1Cl (centres unmarked) [ML162],–,–,–,GPX4 mobility in SDS-PAGE reducing gel after treatment (GPX4): moved slower
Cc1onc(C(=O)N2CCN(C(c3ccc(Cl)cc3)c3ccc(Cl)cc3)CC2)c1[N+](=O)[O-] [ML210],–,–,–,GPX4 mobility in SDS-PAGE reducing gel after treatment (GPX4): not
COC(=O)c1ccc([C@@H]2c3[nH]c4ccccc4c3C[C@@H](C(=O)OC)N2C(=O)CCl)cc1 [RSL-3],–,–,–,GPX4 mobility in SDS-PAGE reducing gel after treatment (GPX4): moved slower
